Measurements taken from patent US9340768B2, “Transformation of glycerol and cellulosic materials into high energy fuels” (THE TEXAS A&M UNIVERSITY SYSTEM, priority 2008, dated 2016).
Entries after “also recorded” stand apart in the source; their conditions may differ.

What was measured:
Format in all cases: cell-based, Debaryomyces hansenii
D. hansenii [1] = experiment: Growth and oleagenicity of D. hansenii on pure carbon sources (Nile red plate staining); conditions: for Growth: carbon source at 30 g/L in minimal media; for Oleagenicity: carbon source at 30 g/L, Nile Red fluorescence
Experimental: D. hansenii (Dh) and S. cerevisiae (Sc) grown on minimal media containing no carbon source, 30 g/L of glucose, arabinose, xylose, carboxymethylcellulose or cellobiose. D. hansenii grew well on media containing glucose, arabinose and cellobiose. Lipid accumulation was indicated by Nile Red fluorescence in D. hansenii grown on glucose but not on cellobiose.
Culture media and cultivation conditions. For liquid culture, single colony of D. hansenii or S. cerevisiae were pre-cultured in 2 mL YPD or other desired media (see below) and incubated at 30° C. for 24 hr. Cells were counted using a hemacytometer and spun down at 3000 rpm for 15 minutes. Cells at a concentration of 1×10^6/mL were used to inoculate the desired media with 1% of the total volume. Medium A with limited nitrogen source (glucose 30 g/L, yeast extract 1.5 g/L, NH4Cl 0.1 g/L, KH2PO4 7.0 g/L, Na2HPO4 1.983 g/L, MgSO4.7H2O 1.5 g/L, FeCl3.6H2O 0.08 g/L, ZnSO4.7H2O 0.01 g/L, CaCl2.2H2O 0.1 g/L, MnSO4.H2O 0.07 mg/L, CuSO4.5H2O 0.1 mg/L, Co(NO3)2.6H2O 0.1 mg/L, pH 5.5; see Kimura et al., 2004) was used to support the growth of D. hansenii and induce cellular lipid accumulation. Medium A with sufficient nitrogen supply (NH4Cl 5 g/L) was used to support growth without the induction of lipid accumulation. To test the growth of D. hansenii on carbon sources other than glucose, glucose was dropped out from medium A and replaced with desired carbon sources at the same concentration except for glycerol, which was at 10% or 20% (v/v). […] For making media containing sorghum juice, raw juice was filter sterilized and added in the media at various concentrations of 5%, 10%, 25%, and 50% (v/v). Crude glycerol (Future Fuel Chemical Company, Arkansas, USA) contained 6% water, 88% glycerol, 2.564% ash by weight.
Nile red plate staining assay. Nile red (9-diethylamino-5H-benzo[α]phenoxazine-5-one) obtained from Sigma-Aldrich (Missouri, USA) was dissolved in Dimethyl sulfoxide (DMSO) at a concentration of 0.5 mg/mL and supplemented in medium A at a final concentration of 0.5 μg/mL. For direct observation of cellular lipid accumulation, D. hansenii grown on solid medium A with Nile red were observed using a UV light source (312 nm) as described (Spiekemann et al., 1999).

D. hansenii [2] = experiment: OmniLog Phenotype Microarray, osmolytes (PM9); conditions: 30° C., OMNILOG PM
Experimental: PM assays. Inoculums for PM panels were prepared according to the manufacturer's protocols with modifications; Procedures for S. cerevisiae and other Fungi version 8 Feb. 2006 (Biolog) was used to prepare inoculums for PM01, PM02, and PM09, while version 29 Apr. 2008 (Biolog) was used for PM10. In brief, D. hansenii were streaked onto defined Medium A (Table 6) and cultivated at 30° C. for 48 hours. Cells were redistributed onto fresh agar using a sterile swab and incubated for an additional 4 hours at 30° C. to ensure active growth and avoid late-growth clumping (Oliver R Homann, Houjian Cai, 2005). (Kimura et al., 2004)
Cells were then transferred into the appropriate PM inoculation fluid (Table 7) and re-suspended to 62% transmittance (approximately 200 cells per 100 μL assay). PM1 and PM2 measure carbon source utilization and/or sensitivity; as such, the inoculation fluid lacks a defined carbon source (e.g., glycerol or glucose). In contrast, the inoculating fluids for PM9 (osmolytes) and PM10 (pH) required the inclusion of a carbon source (Table 7); in this case glucose was supplemented to 100 mM.
D. hansenii-containing inoculation fluid was inoculated into PM panels and incubated at 30° C. for 6.5 days. Color intensity for each well was measured every 15 minutes. Exemplary time course (kinetic) results (means) from representative PM assays are plotted.
In order to simplify the comparison of individual assay conditions, the full time-course kinetic plots were converted into a single unitless numerical value, which is weighted to more greatly value latter time points (e.g., endpoints), as described by Homann et al. (2005). Signal value=[(average signal+maximum signal)/2−average signal over first 2 h]; Represent the full time course by a single number; Weight the value towards latter time points; Subtract the “baseline” signal level for each well (Oliver R Homann, 2005) and Replicate PM assay runs were conducted, and the average of the signal values was used.

D. hansenii [3] = experiment: Cell viability by FUN1 stain and microscopic quantification; conditions: 100 nM wortmannin, FUN1 stain
Experimental: (§1) Fluorescent microscopy. For Nile red stained cells or cultures, microscopic photographs were taken with an Olympus BX51 microscope (Olympus America, New York, USA) equipped with an Olympus DP70 camera using a 530-550 nm excitation filter, a 570 nm diachronic mirror and a 590 nm emission filter with a 60× objective lens. For microscopic quantification of secreted lipid bodies, 50 μL of the cell suspension in media A containing 0.2% agarose and Nile red, with or without the addition of 100 nM wortmannin, were inoculated in triplicate in microscopic frames that allow the agarose-based matrix to be sealed between two pieces of cover glasses. Slides were incubated in 90% moisture at 30° C. At 0, 48, 72, 96, 120, 144 hr post inoculation, the number of the cells and extracellular lipid bodies (stained with Nile red) were quantified. In parallel, the cells were stained with FUN1 (Invitrogen) for viability determination.

D. hansenii [4] = experiment: Microscopic quantification of secreted (extracellular) lipid bodies, Nile red; conditions: 100 nM wortmannin, 144 hr post inoculation; untreated control more than 80 per 100 cells
Experimental: as §1

| SMILES | Oleagenicity (D. hansenii [1]) | level of salt solution tolerated without severe compromise in growth (D. hansenii [2]) | other results |
| --- | --- | --- | --- |
| O=C[C@@H](O)[C@H](O)[C@H](O)CO [Arabinose] | No | – | Growth (D. hansenii [1]): grew well |
| O=C[C@H](O)[C@@H](O)[C@H](O[C@@H]1O[C@H](CO)[C@@H](O)[C@H](O)[C@H]1O)[C@H](O)CO [Cellobiose] | No | – | Growth (D. hansenii [1]): grew well |
| [Cl-].[K+] [KCl] | – | ≤ 6% | – |
| O=S(=O)([O-])[O-].[Na+].[Na+] [Na2SO4] | – | ≤ 5% | – |
| [Cl-].[Na+] [NaCl] | – | up to 6.5% | – |
| O=C[C@H](O)[C@@H](O)[C@H](O)CO [Xylose] | No | – | – |
| COC[C@H]1OC(=O)c2coc3c2[C@@]1(C)C1=C(C3=O)[C@@H]2CCC(=O)[C@@]2(C)C[C@H]1OC(C)=O [wortmannin] | – | – | cell viability (D. hansenii [3]): remained unaffected; also recorded: not affected; lipid bodies released from D. hansenii cells (D. hansenii [4]): lower than 10 per 100 cells |
